Assay results as given in patent US12428396B2, “Fused pyridine ring derivative, preparation method therefor, and pharmaceutical use thereof” (priority 2019, dated 2025).

Biological target: T1, HIV-1 capsid protein (Human immunodeficiency virus type 1 group M subtype B, UniProt P12493)
T1 construct: made in house; host or cells: E. coli (pET30 vector)
Experiment: In vitro polymerization of HIV-1 capsid protein (His-CA/GST-CA, Eu cryptate/XL665 energy transfer)
Assay type: biochemical, HIV-1 NL4-3
Excerpt: • 1. MAb Anti GST-Eu cryptate (Cisbio) • 2. MAb Anti 6HIS-XL665 (Cisbio) • 3. His tag HIV-1 capsid protein (hereinafter referred to as His-CA) • 4. GST tag HIV-1 capsid protein (hereinafter referred to as GST-CA) • 5. 384-well unbound surface microplate, white (Corning) • 6. Microplate reader (BMG)
The HIV-1 capsid proteins aggregate spontaneously in high-salt solutions. Capsid protein sequences derived from HIV-1 NL4-3 strains (GeneBank AF324493.2) were separately tagged with 6His tag and GST tag sequences at the C-terminus, cloned into pET30 vectors, and expressed and separately tagged for expression in E. coli system and purified. His-CA and GST-CA were mixed at high-salt concentrations, and the level of polymerization of capsid proteins was detected using GST antibody labeled with Eu3+-Cryptate (energy donor) and His antibody labeled with XL665 (energy acceptor). Since the excitation spectrum of Eu3+-Cryptate overlapped with the excitation spectrum of XL665, when the capsid proteins with these two tags formed a poly complex, the energy donor and the energy acceptor could be drawn to a sufficiently close distance, the energy donor released part of the captured energy under the excitation of an external light source (such as a xenon lamp or a laser), with the emission wavelength being 620 nM, part of the resonance was transferred to the energy acceptor to excite the energy acceptor, with the emission wavelength being 665 nM, and an optical signal was generated, the signal intensity of which was in direct proportion to the degree of polymerization of the tag proteins.
His-CA was diluted to 2 μM in a clean tube with protein diluent (50 mM Tris-HCl, pH 8.0, 50 mM NaCl, 0.4 mM MgCl2, 0.05% Triton X-100, 2% glycerol) while MAb Anti 6HIS-XL665 at a final concentration of 260 nM was added; GST-CA was diluted to 20 nM with protein diluent in another clean tube while MAb Anti GST-Eu cryptate at a final concentration of 3.33 nM was added and incubated on ice for half an hour. Compounds were first formulated into a concentration of 20 mM with DMSO, then diluted to a first concentration of 2 mM with DMSO and serially 5-fold diluted to the 8th concentration. Control wells were set and added with DMSO, and serially-diluted compounds were then 20-fold diluted with protein diluent to 10-fold working concentrations. Preparation of capsid protein polymerization liquid at 2-fold concentration: 50 mM Tris-HCl, pH 8.0, 1 M NaCl, 800 mM KF; to a pre-cooled white round-bottomed 384-well plate were added 4 uL of His-CA-His antibody mixture, 4 uL of GST-CA-GST antibody mixture, 2 uL of the compounds at 10-fold concentration and 10 uL of capsid protein polymerization reaction liquid at 2-fold concentration, the plate was sealed with a light-shielding sealing plate membrane after uniformly mixing, and the reaction plate was placed in a 37° C. incubator for incubation for 2 h. After incubation, the samples were excited with an excitation light at 337 nM, and signal values at 620 nM and 665 nM were collected for detection, wherein Ratio values=(665 nM/620 nM signal)×10000 was calculated according to the signal values. IC50 values for compounds were calculated using Graphpad Prism software based on each concentration of the compounds and the corresponding Ratio values.

CC(C)(C#Cc1nc([C@H](Cc2cc(F)cc(F)c2)NC(=O)Cn2nc(C(F)(F)F)c3c2C(F)(F)[C@@H]2C[C@H]32)c(-c2ccc(Cl)c3c(NS(C)(=O)=O)nn(CC(F)(F)F)c23)c2c1CCC2)S(C)(=O)=O (atropisomer, axis not shown; (aR)) [Example 1-1, N—((S)-1-((R)-4-(4-chloro-3-(methanesulfonamide)-1-(2,2,2-trifluoroethyl)-1H-indazol-7-yl)-1-(3-methyl-3-(methylsulfonyl)but-1-yn-1-yl)-6,7-dihydro-5H-cyclopenta[c]pyridin-3-yl)-2-(3,5-difluorophenyl)ethyl)-2-((3bS,4aR)-5,5-difluoro-3-(trifluoromethyl)-3b,4,4a,5-tetrahydro-1H-cyclopropa[3,4]cyclopenta[1,2-c]pyrazol-1-yl)acetamide]
IC50: 9 nM
Imax (37° C., 2 h incubation): 100%
